Inconclusive results and toxic doses are left out.
Tested on: L1210 leukemia ip in BDF1 mice, survival T/C
Experiment: NCI In Vivo Anticancer Drug Screen. Data for tumor model L1210 Leukemia (intraperitoneal) in B6D2F1 (BDF1) mice
Details: endpoint: mean survival time, higher = longer survival
How it was run: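 Antitumor effect is assessed in tumor-bearing animals. Survival in the compound arm is compared with a vehicle-dosed control arm and expressed as their quotient.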

[1] = dose: 100.0 mg/kg/injection, schedule: Q04DX003 (ip), vehicle: Klucel (hydroxypropylcellulose) (HPC)
[2] = dose: 25.0 mg/kg/injection, schedule: Q04DX003 (ip), vehicle: saline
[3] = dose: 100.0 mg/kg/injection, schedule: Q04DX002 (ip), vehicle: Klucel (hydroxypropylcellulose) (HPC)
[4] = dose: 200.0 mg/kg/injection, schedule: Q04DX002 (ip), vehicle: Klucel (hydroxypropylcellulose) (HPC)
[5] = dose: 400.0 mg/kg/injection, schedule: Q04DX002 (ip), vehicle: Klucel (hydroxypropylcellulose) (HPC)
[6] = dose: 100.0 mg/kg/injection, schedule: Q01DX001 (ip), vehicle: saline
[7] = dose: 200.0 mg/kg/injection, schedule: Q01DX001 (ip), vehicle: saline
[8] = dose: 400.0 mg/kg/injection, schedule: Q01DX001 (ip), vehicle: saline
[9] = dose: 100.0 mg/kg/injection, schedule: Q01DX001 (ip), vehicle: carboxymethylcellulose (CMC)
[10] = dose: 200.0 mg/kg/injection, schedule: Q01DX001 (ip), vehicle: carboxymethylcellulose (CMC)
[11] = dose: 400.0 mg/kg/injection, schedule: Q01DX001 (ip), vehicle: carboxymethylcellulose (CMC)
[12] = dose: 100.0 mg/kg/injection, schedule: Q01DX009 (ip), vehicle: saline with Tween-80
[13] = dose: 100.0 mg/kg/injection, schedule: Q04DX003 (ip), vehicle: saline with Tween-80
[14] = dose: 200.0 mg/kg/injection, schedule: Q01DX009 (ip), vehicle: saline with Tween-80
[15] = dose: 200.0 mg/kg/injection, schedule: Q04DX003 (ip), vehicle: saline with Tween-80
[16] = dose: 400.0 mg/kg/injection, schedule: Q01DX009 (ip), vehicle: saline with Tween-80
[17] = dose: 400.0 mg/kg/injection, schedule: Q04DX003 (ip), vehicle: saline with Tween-80
[18] = dose: 100.0 mg/kg/injection, schedule: Q01DX009 (ip), vehicle: Klucel (hydroxypropylcellulose) (HPC)
[19] = dose: 200.0 mg/kg/injection, schedule: Q01DX009 (ip), vehicle: Klucel (hydroxypropylcellulose) (HPC)
[20] = dose: 200.0 mg/kg/injection, schedule: Q04DX003 (ip), vehicle: Klucel (hydroxypropylcellulose) (HPC)
[21] = dose: 400.0 mg/kg/injection, schedule: Q01DX009 (ip), vehicle: Klucel (hydroxypropylcellulose) (HPC)
[22] = dose: 400.0 mg/kg/injection, schedule: Q04DX003 (ip), vehicle: Klucel (hydroxypropylcellulose) (HPC)

Which results are given for `O=[N+]([O-])c1cc(Cl)cc2c1-c1c(Cl)cc(Cl)cc1/C2=N/O`?
T/C (dose: 25.0 mg/kg/injection, schedule: Q01DX009 (ip), vehicle: Klucel (hydroxypropylcellulose) (HPC)): 106 % of control; T/C (dose: 50.0 mg/kg/injection, schedule: Q01DX009 (ip), vehicle: Klucel (hydroxypropylcellulose) (HPC)): 94 % of control; T/C [1]: 101 % of control

How did the T/C (dose: 100.0 mg/kg/injection, schedule: Q01DX009 (ip), vehicle: saline) turn out when `NC(N)=NCCCC(N=Cc1ccccc1)C(=O)O` (stereo not drawn) was run?
The T/C was 97 % of control.

And the T/C (dose: 200.0 mg/kg/injection, schedule: Q01DX009 (ip), vehicle: saline)?
The T/C was 101 % of control.

And the T/C (dose: 400.0 mg/kg/injection, schedule: Q01DX009 (ip), vehicle: saline)?
The T/C was 98 % of control.

Which T/C [2] does the source give for `CCCCCC/C=C1/CCC/C1=N\NC(=O)c1ccc[n+](C)c1` here?
Its T/C is 100 % of control.

And the T/C (dose: 50.0 mg/kg/injection, schedule: Q04DX003 (ip), vehicle: saline)?
The T/C was 101 % of control.

What about the T/C (dose: 100.0 mg/kg/injection, schedule: Q04DX003 (ip), vehicle: saline) of the same molecule?
Its T/C is 100 % of control.

For `O=C1CCCC2=C1C(c1ccncc1)Nc1ccccc1N2` (stereo not drawn), which T/C [3] is on record?
The T/C was 103 % of control.

What about the T/C [4] of the same molecule?
The T/C was 117 % of control.

And the T/C [5]?
Its T/C is 109 % of control.

What does the source list for `CC(C)(CO)N=Cc1ccccc1Cl`?
T/C [6]: 102 % of control; T/C [7]: 100 % of control; T/C [8]: 100 % of control

Which results are given for `COc1ccccc1CN1CCCN(Cc2ccccc2OC)C1c1ccccc1F`?
T/C (dose: 50.0 mg/kg/injection, schedule: Q01DX001 (ip), vehicle: carboxymethylcellulose (CMC)): 114 % of control; T/C [9]: 108 % of control; T/C [10]: 96 % of control; T/C [11]: 112 % of control

Which results are given for `Cc1ccccc1OB(Oc1ccccc1C)Oc1ccccc1C`?
T/C [6]: 101 % of control; T/C [7]: 109 % of control; T/C [8]: 95 % of control

What does the source list for `O=C(O)c1ccccc1C(=O)NNC(=O)c1ccccc1C(=O)O`?
T/C [12]: 97 % of control; T/C [13]: 97 % of control; T/C [14]: 94 % of control; T/C [15]: 108 % of control; T/C [16]: 94 % of control; T/C [17]: 92 % of control

What does the source list for `O=[N+]([O-])/C=C/c1cc2ccccc2[nH]1`?
T/C (dose: 100.0 mg/kg/injection, schedule: Q01DX009 (ip), vehicle: other): 96 % of control; T/C (dose: 200.0 mg/kg/injection, schedule: Q01DX009 (ip), vehicle: other): 113 % of control; T/C (dose: 400.0 mg/kg/injection, schedule: Q01DX009 (ip), vehicle: other): 107 % of control

Which results are given for `CCOC(OCC)c1c(Cl)cccc1Cl`?
T/C [12]: 98 % of control; T/C [13]: 99 % of control; T/C [14]: 88 % of control; T/C [15]: 93 % of control; T/C [16]: 101 % of control; T/C [17]: 93 % of control

`CSCCC(NC(=O)CN)C(=O)O` (stereo not drawn) was tested. Which T/C [6] did it give?
Its T/C is 96 % of control.

What about the T/C [7] of the same molecule?
Its T/C is 104 % of control.

And the T/C [8]?
Its T/C is 102 % of control.

With `CCN(CC)C(N)=Nc1ccc(NC(=O)c2ccc(C(=O)Nc3ccc(N=C(N)N(CC)CC)cc3)cc2)cc1` as the molecule, how does the T/C (dose: 1.8 mg/kg/injection, schedule: Q01DX Z (ip), vehicle: water) read?
The T/C was 113 % of control.

And the T/C (dose: 6.5 mg/kg/injection, schedule: Q01DX Z (ip), vehicle: water)?
The T/C was 180 % of control.

What about the T/C (dose: 50.0 mg/kg/injection, schedule: Q01DX Z (oral), vehicle: water) of the same molecule?
Its T/C is 101 % of control.

What about the T/C (dose: 200.0 mg/kg/injection, schedule: Q01DX Z (oral), vehicle: water) of the same molecule?
The T/C was 107 % of control.

And the T/C (dose: 400.0 mg/kg/injection, schedule: Q01DX Z (oral), vehicle: water)?
Its T/C is 93 % of control.

What does the source list for `CCn1c2ccccc2c2cc3ccnc(C)c3cc21`?
T/C [3]: 97 % of control; T/C [4]: 101 % of control; T/C [5]: 111 % of control

Which results are given for `COc1cc(Oc2cc(OC)c(OC)c(OC)c2)cc(OC)c1OC`?
T/C [13]: 97 % of control; T/C [15]: 101 % of control; T/C [17]: 97 % of control

For `CC(=O)CC(=O)Nc1ccc(Cc2ccc(NC(=O)CC(C)=O)c(C)c2)cc1C`, which T/C [6] is on record?
Its T/C is 88 % of control.

What about the T/C [7] of the same molecule?
Its T/C is 94 % of control.

What about the T/C [8] of the same molecule?
The T/C was 94 % of control.

For `Oc1ccccc1/C=N/c1nc2ccc(Cl)cc2s1.Oc1ccccc1/C=N/c1nc2ccc(Cl)cc2s1.[Zn]`, which T/C [6] is on record?
The T/C was 90 % of control.

For `Cc1nc(N)[nH]c(=O)c1CCCNS(=O)(=O)c1ccccc1`, which T/C (dose: 50.0 mg/kg/injection, schedule: Q01DX001 (ip), vehicle: Klucel (hydroxypropylcellulose) (HPC)) is on record?
Its T/C is 105 % of control.

What about the T/C (dose: 100.0 mg/kg/injection, schedule: Q01DX001 (ip), vehicle: Klucel (hydroxypropylcellulose) (HPC)) of the same molecule?
The T/C was 94 % of control.

And the T/C (dose: 200.0 mg/kg/injection, schedule: Q01DX001 (ip), vehicle: Klucel (hydroxypropylcellulose) (HPC))?
Its T/C is 90 % of control.

What does the source list for `Nc1nc(Cl)c(Br)c(=O)[nH]1`?
T/C (dose: 25.0 mg/kg/injection, schedule: Q01DX Z (ip), vehicle: methylcellulose (MC)): 98 % of control; T/C (dose: 50.0 mg/kg/injection, schedule: Q01DX Z (ip), vehicle: methylcellulose (MC)): 89 % of control

Which T/C [18] does the source give for `Cc1cc(CS)c(CS)cc1C` here?
Its T/C is 100 % of control.

What about the T/C [1] of the same molecule?
Its T/C is 96 % of control.

What about the T/C [19] of the same molecule?
Its T/C is 103 % of control.

What about the T/C [20] of the same molecule?
Its T/C is 93 % of control.

What about the T/C [21] of the same molecule?
The T/C was 102 % of control.

And the T/C [22]?
Its T/C is 94 % of control.

Which results are given for `O=C(Nc1cccc(Cl)c1)Nc1cc(Cl)ccc1Cl`?
T/C [12]: 92 % of control; T/C [13]: 96 % of control; T/C [14]: 90 % of control; T/C [15]: 91 % of control; T/C [16]: 94 % of control; T/C [17]: 97 % of control

What does the source list for `CCCCOc1cc(C(=O)NCCN(CC)CC)c2ccccc2n1`?
T/C (dose: 6.25 mg/kg/injection, schedule: Q04DX003 (ip), vehicle: saline): 98 % of control; T/C (dose: 12.5 mg/kg/injection, schedule: Q04DX003 (ip), vehicle: saline): 98 % of control; T/C [2]: 107 % of control

With `CC(=O)Nc1ccc(Cl)nc1` as the molecule, how does the T/C [18] read?
The T/C was 98 % of control.

What about the T/C [1] of the same molecule?
The T/C was 94 % of control.

And the T/C [19]?
Its T/C is 92 % of control.

What about the T/C [20] of the same molecule?
Its T/C is 101 % of control.

And the T/C [21]?
The T/C was 93 % of control.

What about the T/C [22] of the same molecule?
The T/C was 91 % of control.

With `COc1cccc(C)c1NC(=O)NCCCl` as the molecule, how does the T/C [1] read?
Its T/C is 100 % of control.

And the T/C [20]?
The T/C was 94 % of control.

And the T/C [22]?
The T/C was 94 % of control.

How did the T/C [13] turn out when `C#CC(C)(C)CC(=O)O` was run?
The T/C was 98 % of control.

What about the T/C [15] of the same molecule?
The T/C was 95 % of control.

What about the T/C [17] of the same molecule?
The T/C was 92 % of control.

Which results are given for `O=C(O)C(CSC(c1ccccc1)(c1ccccc1)c1ccccc1)NSc1ccccc1[N+](=O)[O-]` (stereo not drawn)?
T/C [18]: 114 % of control; T/C [1]: 98 % of control; T/C (dose: 175.0 mg/kg/injection, schedule: Q01DX009 (ip), vehicle: Klucel (hydroxypropylcellulose) (HPC)): 98 % of control; T/C [19]: 121 % of control; T/C [20]: 102 % of control; T/C (dose: 265.0 mg/kg/injection, schedule: Q01DX009 (ip), vehicle: Klucel (hydroxypropylcellulose) (HPC)): 100 % of control; T/C [21]: 110 % of control; T/C [22]: 95 % of control

With `Nc1cccc2c1/C(=N/O)c1ccccc1-2` as the molecule, how does the T/C [9] read?
Its T/C is 98 % of control.

And the T/C [10]?
Its T/C is 100 % of control.

And the T/C [11]?
Its T/C is 98 % of control.

Source: PubChem BioAssay AID248 (DTP/NCI, 2004)
